# Laboratory results from article PMC2215728 (The Journal of General Physiology, 1978).
# Read-outs that look alike come from different tables or passages of the source.
# Key:
# [1] = system: everted segments of rat ileum; assay: Influx of weak electrolytes into everted segments of rat ileum in vitro; details: for Influx Ileum: Table III; for Resistance Ileum Unstirred layer: Table V, calculated as d/DSc
# [2] = system: everted segments of rat jejunum; assay: Influx of weak electrolytes into everted segments of rat jejunum in vitro; details: for Influx Jejunum: Table III; for Ratio of influx and nonionized concentration: J(1 + 10a)/C; for Resistance Jejunum Unstirred layer: Table V, calculated as d/DSc
# [3] = Table III, cited from earlier work
# [4] = system: everted segments of rat jejunum
# [5] = system: everted segments of rat ileum
# [6] = Partition in two-phase aqueous/organic solvent; format: physicochemical; details: heptane:aqueous partition of nonionized form
# [7] = 1 mM, pH 7.40, 1 min, 37C, mean SE (n)
# [8] = Table I, everted rat jejunum, 1 mM solution, second weak electrolyte (10 mM): Benzoic acid
# [9] = Table I, everted rat jejunum, 1 mM solution, second weak electrolyte (10 mM): Benzylamine
# [10] = Table I, everted rat jejunum, 1 mM solution, second weak electrolyte (10 mM): Pentanoic acid
# [11] = Table II, everted segments (region not stated), pH 7.4
# [12] = Table I, everted rat jejunum, 1 mM solution, second weak electrolyte (10 mM): c-Hexylamine
# [13] = 0.1 mM solution, observed influx increased by a factor of 10
SMILES,"Influx Ileum [1, 7] [nmol.100mg dry wt-1.min-1]","Influx Jejunum [2, 7] [nmol.100mg dry wt-1.min-1]",Resistance Ileum Unstirred layer [1],Resistance Jejunum Unstirred layer [2] [cm-3.min.100 mg dry wt],also measured
CCCC(=O)O [Butyric],11,12,,,
NC1CCCCC1 [c-Hexylamine],6,12,2.05 cm-3.min.100 mg dry wt,1.95,"Influx [2, 8]: 9 nmol.100mg dry wt-1.min-1; Influx [2, 9]: 12 nmol.100mg dry wt-1.min-1; Influx [2, 10]: 9 nmol.100mg dry wt-1.min-1; Influx [2, 11]: 12; Ratio of influx and nonionized concentration ([2]; Table II, pH 7.4): 22; Ratio of influx and nonionized concentration ([2]; Table II, pH 7.9): 24; pKa ([3]; ref Ref. 6): 10.66"
CCC1(c2ccccc2)C(=O)NC(=O)NC1=O [Phenobarbital],,321,2.95 cm-3.min.100 mg dry wt,2.81,
"O=C(O)c1ccccc1 [Benzoic, Benzoic acid]",15,17,,,"Influx [2, 9]: 19 nmol.100mg dry wt-1.min-1; Influx [2, 10]: 21 nmol.100mg dry wt-1.min-1; Influx [2, 12]: 17 nmol.100mg dry wt-1.min-1"
"CCCCCCCC(=O)O [Octanoic, Octanoic acid]",56,147,2.60 cm-3.min.100 mg dry wt,2.47,"Influx [2, 11]: 145; Influx ([2]; Table II, everted segments (region not stated), pH 7.9): 60; Influx ([2]; Table II, everted segments (region not stated), pH 8.4): 15"
"CCCCCC(=O)O [Hexanoic, HEXANOIC ACID]",29,73,2.24 cm-3.min.100 mg dry wt,2.13,
O=C(O)C(c1ccccc1)c1ccccc1 [Diphenylacetic],7,14,2.95 cm-3.min.100 mg dry wt,2.81,pKa ([3]; ref Ref. 6): 3.94
"CC(=O)O [Acetic, acetic acid]",3,0,,,
CCCCCCC(=O)O [Heptanoic],50,81,2.43 cm-3.min.100 mg dry wt,2.31,pKa ([3]; ref Ref. 6): 4.89
CC(C)CC(=O)O [iso-Pentanoic],20,21,,,Resistance Jejunum Empirical [4]: 4.76x 101; Resistance Jejunum Unstirred layer [4]: 1.95; Resistance Ileum Empirical [5]: 5.00x 101; Resistance Ileum Unstirred layer [5]: 2.05
CCCCCCCO [heptanol],,,,,"influx of heptanol with pH of incubation saline ([2]; preliminary experiments, range of pH values 7.5-8.5): constant"
"CCCCC(=O)O [Pentanoic, Pentanoic acid]",18,22,2.05 cm-3.min.100 mg dry wt,1.95,"Influx [2, 8]: 22 nmol.100mg dry wt-1.min-1; Influx [2, 9]: 18 nmol.100mg dry wt-1.min-1; Influx [2, 12]: 20 nmol.100mg dry wt-1.min-1"
CN1C(=O)NC(=O)C(C)(C2=CCCCC2)C1=O (centres unmarked) [Hexobarbital],327,348,3.00 cm-3.min.100 mg dry wt,2.86,pKa ([3]; ref Bush (1)): 8.20
C=CCN1CC[C@]23c4c5ccc(O)c4O[C@H]2C(=O)CC[C@@]3(O)[C@H]1C5 [Naloxone],263,286,,3.38,pKa ([3]; ref Taylor (11)): 6.93
NCc1ccccc1 [Benzylamine],155,220,"2,02 cm-3.min.100 mg dry wt",1.92,"Influx [2, 8]: 221 nmol.100mg dry wt-1.min-1; Influx [2, 12]: 211 nmol.100mg dry wt-1.min-1"
CC(C)C(=O)O [iso-Butyric],13,10,1.84 cm-3.min.100 mg dry wt,1.75,
"CCCCCCCCCC(=O)O [Decanoic, decanoic acid]",,,2.93 cm-3.min.100 mg dry wt,2.79,"Influx Ileum [1, 13]: 158 nmol.100mg dry wt-1.min-1; Influx Jejunum [2, 13]: 361 nmol.100mg dry wt-1.min-1"
CC(C)N [2-Amino propane],4,6,1.54 cm-3.min.100 mg dry wt,1.47,pKa ([3]; ref Ref. 6): 10.63; ratio of kni Hept values for 2-amino-propane and propionic acid [6]: greater than 20
"O=C(O)Cc1ccccc1 [Phenylacetic, PHENYLACETIC ACID]",15,24,2.27 cm-3.min.100 mg dry wt,2.16,
CCC(=O)C(CC(C)N(C)C)(c1ccccc1)c1ccccc1 (centres unmarked) [Methadone],259,272,3.93 cm-3.min.100 mg dry wt,3.74,
CCCCCCCCCCN [Decylamine],,,,2.78,"Influx Jejunum [2, 13]: 264 nmol.100mg dry wt-1.min-1"
"CCC(=O)O [Propionic, propionic acid]",9,6,1.61 cm-3.min.100 mg dry wt,1.53,
